Source: article PMC10716780, “The multistep oxidation of cholesterol to pregnenolone by human cytochrome P450 11A1 is highly processive” (The Journal of Biological Chemistry, 2023)
Values joined by “and” are separate entries in the source; they are usually repeats but may differ in a detail not shown here. Identical values can stand only once.

Target: T1, human P450 11A1 (Homo sapiens, UniProt P05108)
T1 sequence (P05108 41-521 limits assumed): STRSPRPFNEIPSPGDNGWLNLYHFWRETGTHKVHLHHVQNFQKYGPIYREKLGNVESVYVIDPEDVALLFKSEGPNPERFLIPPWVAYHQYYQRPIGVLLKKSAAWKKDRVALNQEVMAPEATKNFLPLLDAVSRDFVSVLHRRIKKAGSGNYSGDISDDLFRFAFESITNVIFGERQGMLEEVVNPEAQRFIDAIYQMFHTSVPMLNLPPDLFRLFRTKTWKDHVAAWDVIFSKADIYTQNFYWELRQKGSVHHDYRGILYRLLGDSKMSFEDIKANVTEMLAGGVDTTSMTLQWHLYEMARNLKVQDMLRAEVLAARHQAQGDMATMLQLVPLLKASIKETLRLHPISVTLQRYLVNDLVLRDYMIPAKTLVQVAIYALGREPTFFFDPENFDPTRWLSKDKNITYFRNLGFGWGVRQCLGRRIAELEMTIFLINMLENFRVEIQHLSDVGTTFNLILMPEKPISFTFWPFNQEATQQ
T1 sequence (P00257 59-186 partner): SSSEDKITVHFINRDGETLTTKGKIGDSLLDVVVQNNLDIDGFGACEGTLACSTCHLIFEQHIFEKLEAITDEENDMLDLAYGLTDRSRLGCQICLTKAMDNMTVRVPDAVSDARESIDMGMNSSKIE
Assay: Steady-state conversion of sterols to pregnenolone by reconstituted P450 11A1 (UPLC-MS of dansyl hydrazone)
Format: biochemical
Set-up: M A S T R S P R P F N E I P S P G D N; Met-Ala (N-terminal start residues in place of the transit peptide and Ile40) (N); made in house; host or cells: E. coli (P450 11A1 in C41(DE3); Adx and AdR in E. coli)
Details: for Km / kcat / kcat (conversion of sterol to pregnenolone): 0.25 μM P450, 0.5 μM AdR, 10 μM Adx, 37 °C; for rate of pregnenolone formation: duplicate, raw data of Fig. 5
Method: Accordingly, all steady-state assays were done, unless otherwise noted, with a P450 11A1:Adx:AdR molar ratio of 1:40:2 (Fig. 2, that is, 0.25 μM P450, 10 μM Adx, and 0.5 μM AdR), in the absence of added lipid or detergent, and with the addition of sterol substrates in HPCD (stock 45% w/v).
As mentioned in the Introduction, many types of assays have been used to monitor the steady-state conversion of cholesterol to pregnenolone ([12], [14], [15], [16], [17], [18], [19], [20], [21]). A reliable and sensitive method was required that could be used for presteady-state reactions and was not reliant on the presence of isotope in cholesterol, in that, we also worked with 22R-OH cholesterol and 20R,22R-(OH)2 cholesterol as substrates. We utilized a method based on our work with P450 17A1 ([41], [42]), in which we derivatized the product pregnenolone as its dansyl hydrazone and separated it by ultra-performance liquid chromatography (UPLC) with detection by positive ion electrospray mass spectrometry (MS). The steroid dehydroepiandosterone (DHEA) was used an internal standard.
Reactions were performed by reconstituting P450 (0.25 μM), AdR (0.5 μM), and Adx (10 μM) on ice for 10 min prior to dilution in potassium Hepes buffer (50 mM, pH 7.4) and H2O and the addition of substrate (sterol, in HPCD (45% w/v)). Sterol dilutions were performed in HPCD to ensure that the HPCD composition was equal throughout all incubations (final 4.5% w/v). The reaction mixture was split between vials (425 μl in each), and reactions were preincubated (37 °C, 5 min) prior to initiation (75 μl) with an NADPH-generating system (0.5 mM NADP^+, 10 mM glucose 6-phosphate, and 2 μg ml^−1 glucose 6-phosphate dehydrogenase) ([61]). Reactions (5 min) were terminated by extraction into CH2Cl2 (2 ml) and transferred to an ice bath. After the experiment was complete, the quenched reactions were subjected to centrifugation (10^3g, 5 min, 23 °C) to separate layers, the organic (bottom) layer of each sample was removed (1.6 ml) to fresh glass vials, and the samples were brought to dryness under a stream of nitrogen.
Steroid extracts were subsequently derivatized with dansylhydrazine and analyzed as described previously ([42]). Briefly, the dried residue was resuspended (200 μl) in C2H5OH (fortified with 0.1% v/v CF3CO2H, as the derivatization reaction is H^+-catalyzed) and mixed with a vortex device. Samples were transferred to 1.5 ml amber glass vials, solutions of dansylhydrazine (10 mM) and DHEA, 10 μM, as internal standard) were added, and vials were capped, mixed with a vortex device, and incubated in the dark overnight (∼16 h, 23 °C). The derivatization reaction was quenched with acetone […], briefly incubated in the dark (∼30 min, 23 °C), and was then neutralized with base (250 μl of 0.5 M NaOH) and extracted into CH2Cl2 (1 ml). The samples were mixed with a vortex device and the organic (bottom) layer was removed (0.8 ml) to clean amber vials. Solvent was again removed under nitrogen, and the dried residue was dissolved in a mobile phase (100 μl) of 0.1% CF3CO2H in aqueous CH3CN (50%, v/v) for analysis.
Samples were injected (10 μl, held at 25 °C) on a 2.1 mm × 50 mm (1.7 μm) Acquity BEH octadecylsilane (C18) column (held at 40 °C) using a Waters Acquity UPLC with a flow rate of 0.2 ml min^−1 and a gradient mobile phase of (A) 0.1% aqueous HCO2H and (B) CH3CN as follows (all %B, v/v): 0 min, 40%; 0.5 min, 40%; 8 min, 100%; 8.5 min, 95%; 9 min, 100%; 9.1 min, 40%; and 10 min, 40%.

## CC(C)CC[C@@H](O)[C@](C)(O)[C@H]1CC[C@H]2[C@@H]3CC=C4C[C@@H](O)CC[C@]4(C)[C@H]3CC[C@]12C [20R,22R-(OH)2 Chol, (20R,22R)-Cholest-5-ene-3β,20,22-triol]
  Km: 36 ± 7 µM
  kcat: 0.233 ± 0.017 s⁻¹
  kcat (conversion of sterol to pregnenolone): 0.23 ± 0.02 s⁻¹
Steady state
  kcat and kcat/Km relative to starting substrate cholesterol (greater): ~2 fold
Substrate 5 µM, listed as 20R,22R-(OH)2 Cholesterol
  rate of pregnenolone formation: 2.46 min⁻¹ and 2.24 min⁻¹
Substrate 7.5 µM, listed as 20R,22R-(OH)2 Cholesterol
  rate of pregnenolone formation: 2.57 min⁻¹ and 2.85 min⁻¹
Substrate 15 µM, listed as 20R,22R-(OH)2 Cholesterol
  rate of pregnenolone formation: 3.83 min⁻¹ and 4.18 min⁻¹
Substrate 20 µM, listed as 20R,22R-(OH)2 Cholesterol
  rate of pregnenolone formation: 4.26 min⁻¹ and 5.83 min⁻¹
Substrate 30 µM, listed as 20R,22R-(OH)2 Cholesterol
  rate of pregnenolone formation: 5.47 min⁻¹ and 6.23 min⁻¹
Substrate 40 µM, listed as 20R,22R-(OH)2 Cholesterol
  rate of pregnenolone formation: 7.20 min⁻¹ and 6.21 min⁻¹
Substrate 50 µM, listed as 20R,22R-(OH)2 Cholesterol
  rate of pregnenolone formation: 6.51 min⁻¹ and 8.53 min⁻¹
Substrate 75 µM, listed as 20R,22R-(OH)2 Cholesterol
  rate of pregnenolone formation: 7.45 min⁻¹ and 10.26 min⁻¹
Substrate 100 µM, listed as 20R,22R-(OH)2 Cholesterol
  rate of pregnenolone formation: 12.01 min⁻¹ and 10.27 min⁻¹
Substrate 150 µM, listed as 20R,22R-(OH)2 Cholesterol
  rate of pregnenolone formation: 9.70 min⁻¹ and 11.61 min⁻¹

## CC(C)CC[C@H](O)[C@](C)(O)[C@H]1CC[C@H]2[C@@H]3CC=C4C[C@@H](O)CC[C@]4(C)[C@H]3CC[C@]12C [20R,22S-(OH)2 Chol, (20R,22S)-Cholest-5-ene 3β,20,22-triol]
  Km: 15 ± 2 µM
  kcat: 0.0833 ± 0.0033 s⁻¹
  kcat (conversion of sterol to pregnenolone): 0.083 ± 0.003 s⁻¹
Steady state
  kcat lower than native diol 20R,22R-(OH)2 cholesterol: ~3 fold
Substrate 7.5 µM, listed as 20R,22S-(OH)2 Cholesterol
  rate of pregnenolone formation: 2.07 min⁻¹ and 1.68 min⁻¹
Substrate 15 µM, listed as 20R,22S-(OH)2 Cholesterol
  rate of pregnenolone formation: 1.97 min⁻¹ and 1.99 min⁻¹
Substrate 20 µM, listed as 20R,22S-(OH)2 Cholesterol
  rate of pregnenolone formation: 2.93 min⁻¹ and 2.88 min⁻¹
Substrate 30 µM, listed as 20R,22S-(OH)2 Cholesterol
  rate of pregnenolone formation: 3.59 min⁻¹ and 3.11 min⁻¹
Substrate 40 µM, listed as 20R,22S-(OH)2 Cholesterol
  rate of pregnenolone formation: 3.90 min⁻¹ and 4.10 min⁻¹
Substrate 50 µM, listed as 20R,22S-(OH)2 Cholesterol
  rate of pregnenolone formation: 3.70 min⁻¹ and 3.57 min⁻¹
Substrate 75 µM, listed as 20R,22S-(OH)2 Cholesterol
  rate of pregnenolone formation: 4.16 min⁻¹ and 4.38 min⁻¹
Substrate 100 µM, listed as 20R,22S-(OH)2 Cholesterol
  rate of pregnenolone formation: 4.14 min⁻¹ and 4.09 min⁻¹
Substrate 150 µM, listed as 20R,22S-(OH)2 Cholesterol
  rate of pregnenolone formation: 4.64 min⁻¹ and 4.37 min⁻¹

## CC(C)CC[C@@H](O)[C@@H](C)[C@H]1CC[C@H]2[C@@H]3CC=C4C[C@@H](O)CC[C@]4(C)[C@H]3CC[C@]12C [22R-OH Chol, 22R-hydroxycholesterol]
  Km: 29 ± 3 µM
  kcat: 0.152 ± 0.005 s⁻¹
  kcat (conversion of sterol to pregnenolone): 0.15 ± 0.01 s⁻¹
Substrate 2.5 µM, listed as 22R-OH Cholesterol
  rate of pregnenolone formation: 1.34 min⁻¹ and 1.02 min⁻¹
Substrate 5 µM, listed as 22R-OH Cholesterol
  rate of pregnenolone formation: 1.68 min⁻¹ and 1.48 min⁻¹
Substrate 7.5 µM, listed as 22R-OH Cholesterol
  rate of pregnenolone formation: 1.94 min⁻¹ and 2.15 min⁻¹
Substrate 15 µM, listed as 22R-OH Cholesterol
  rate of pregnenolone formation: 3.15 min⁻¹ and 3.07 min⁻¹
Substrate 20 µM, listed as 22R-OH Cholesterol
  rate of pregnenolone formation: 3.29 min⁻¹ and 3.38 min⁻¹
Substrate 30 µM, listed as 22R-OH Cholesterol
  rate of pregnenolone formation: 4.66 min⁻¹ and 5.17 min⁻¹
Substrate 40 µM
  rate of pregnenolone formation: 5.08 min⁻¹
Substrate 50 µM, listed as 22R-OH Cholesterol
  rate of pregnenolone formation: 5.23 min⁻¹ and 5.80 min⁻¹
Substrate 75 µM, listed as 22R-OH Cholesterol
  rate of pregnenolone formation: 6.76 min⁻¹ and 6.27 min⁻¹
Substrate 100 µM, listed as 22R-OH Cholesterol
  rate of pregnenolone formation: 7.41 min⁻¹ and 6.71 min⁻¹
Substrate 150 µM, listed as 22R-OH Cholesterol
  rate of pregnenolone formation: 7.68 min⁻¹ and 8.05 min⁻¹
